Assays:
cats [1] = test: Example 6: animal litter composition with molded particles for use with cats; type: in vivo; conditions: animal litter composition comprising about 0.0004% to about 0.0006% (w/w) 2-methylbut-2-enal; most evident in the first 6-8 hours
Text: An animal litter composition comprising a pheromone composition can be prepared by first forming molded particles from a shaped polymeric matrix prepared in accordance with Example 4 or 5, wherein the molded particles comprise a pheromone composition comprising 2-methylbut-2-enal. The molded particles can then be combined with, mixed into, or otherwise incorporated into litter material upon use of the litter. An animal litter composition of about 2 lbs. to about 6 lbs. will comprise between about 0.01% and about 15% (w/w) molded particles (the molded particles comprising about 0.02% (w/w) 2-methylbut-2-enal) in order to be effective in alleviating litter dominant behavior and associated aggression and anxiety in cats exposed to the pheromone composition as released from the litter. For example, an animal litter comprising about 2% to about 3% molded particles will result in the litter comprising between about 0.0004% (w/w) and about 0.0006% (w/w) 2-methylbut-2-enal. Accordingly, it will be observed that an animal litter composition comprising about 0.0004% to about 0.0006% (w/w) 2-methylbut-2-enal will elicit a positive behavior modification in cats, which behavior modification can last at least 24 hours, and is most evident in the first 6-8 hours following exposure of the animal to the animal litter composition.

cats [2] = test: Study 3: 24-hour behavior of the most aggressive intact male cat pairs, CON litter versus RP litter; type: in vivo
Method: During the studies, cat behavior was captured on video for the duration of the 24- or 48-hour period depending on the specific study. Red lights were used at night to allow for continuous observation. A scan sampling method was used to record cat behaviors each 5 minutes. The recorded videos were subsequently reviewed and analyzed in each 5-minute scan sample, with tape playing 30 frames per second. At each 5-minute time point, each cat was categorized as anxious or relaxed. Aggression or litter box usage occurred between 5-minute periods were also noted. Because each scan sample is of 5-minute period, a total of 24 observations for each individual behavior are possible for each 2 hours. The instances of an individual behavior (An; n=1, 2, 3, . . . 24) in each 5-minute period were totaled for instances in each 2 hours (Bm=ΣAn, n=1, 2, 3, . . . 24; m=1, 2, 3, . . . 12) over 24 hours. The behavioral score for each 2-hour period is ΣAn/24 (n=1, 2, 3, . . . , 24). A behavioral score for a 24-hour period is ΣBm/12 (m=1, 2, 3, . . . 12). Among all behavior assessed, aggression, in-litter-box and anxiety were scored as yes or no during each 5 minutes (An=1 or 0; n=1, 2, 3, . . . 24). In addition, anxiety was measured as a percentage of the total time that the cat was experiencing anxiety. As such the anxiety related behavioral score for a 24-hour period is 0.347×ΣBm (%) (Bm=ΣAn(%), n=1, 2, 3, . . . 24; m=1, 2, 3, . . . 12), which reflects the percentage of time over 24 hours that the cats are experiencing anxiety. Moreover, when ranking cat pairs based on their level of aggression, the sum of the aggression scores of the individual cats in the pair was used to rank the cat pairs. Behavior data (behavioral scores) were further analyzed by Least Squares Analysis of variance using SAS (2011, SAS Inst., Inc., Cary, N.C.) software and the p-diff general linear model procedures to assess treatment differences within each time period. This statistical model included effects of treatment (TRT), cat-pair within treatment (TRT*CAT), time (HR), treatment by time (TRT*HR) and residual error (SE; used to test remaining effects). The most aggressive eight pairs of intact male cats from study 2 (Table, the pairs ranked 1 and 2-9) were selected for this 24-hour study, which was designed to assess if and how 2-methylbut-2-enal containing cat litter affects the multiple cats placed in one single room. Between studies 2 and 3, cat pairs had been separated for at least 12 weeks. Control (CON) litter and rabbit pheromone (RP) litter were similarly prepared as illustrated in Study 2. Each pair of cats was placed in a kennel containing one food dish, one water dish, and one litter box. Food and water was available ad libitum during the study. […] Side fences were chain linked. A total of 4 kennels were placed in one single room, and two rooms were utilized for eight pairs of cats. Cat behaviors were captured on video for the duration of the 24-hour period. Red lights were used at night to allow for continuous observation. The study schedule was as follows: • (1) 0 hour—Add 3 lb. aliquot of CON litter to a clean litter box and weigh the litter box; place a CON litter box in each of the 4 kennels in Room One. Before placing a designated cat pair in each of the kennels, weigh the cats. Start the video taping. • (2) 0 hour—Add 3 lb. aliquot of RP litter to a clean litter box and weigh; place RP litter boxes in 4 kennels in a separate Room Two; weigh cats; place designated pairs in kennels; and start the video taping. • (3) 24-hour—Remove and weigh all litter boxes; weigh all cats. Video records were obtained and reviewed for summary and analyses. At the 24-hour point of time, it was noted if any soiling had occurred outside of the litter box. Any social behavioral problems of the cats were also manually recorded, despite that video records provided a much more precise record of cat behaviors. Cat behavior of each pair was captured on video for the duration of the 24-hour period. […]

C/C=C(\C)C=O [RP, 2-methylbut-2-enal]
duration of positive behavior modification in cats (cats [1]): at least 24 hours | aggression away from litter box, % of the observations (cats [2]; 0-2 hour period, CON litter 25%, P<0.01): 5-6% | aggression near litter box, % of the observations (cats [2]; 0-2 hour period, CON litter more than 40%, P<0.01): 2-3% | aggression away from litter box, % of the observations (cats [2]; 2-4 hour period, CON litter 23-24%, P<0.01): 4% | lying/sitting - touching versus CON litter (cats [2]; 6-8 hour period, P=0.07): tendency to sit or lie in contact | anxiety versus CON litter (cats [2]; 8-10 hour period, P=0.06): tendency to be more anxious | litter box use versus CON litter (cats [2]; 8-10 hour period, P=0.10): tended to use the litter box more often | anxiety versus CON litter (cats [2]; 10-12 hour period, P<0.01): significantly more anxious | neutral social interaction versus CON litter (cats [2]; 10-12 hour period, P<0.01): significantly more neutral (non-aggressive) social interactions | litter box use versus CON litter (cats [2]; 12-14 hour period, P<0.01): Cats experiencing CON litter used the litter box significantly more | anxiety versus CON litter (cats [2]; 14-16 hour period, P=0.01): significantly more anxious | anxiety versus CON litter (cats [2]; 16-18 hour period, P=0.03): significantly more anxious | lying/sitting - touching versus CON litter (cats [2]; 16-18 hour period, P=0.05): tended to sit or lie in contact less | anxiety versus CON litter (cats [2]; 18-20 hour period, P=0.03): significantly more anxious | litter box use versus CON litter (cats [2]; 18-20 hour period, P=0.03): Cats experiencing CON litter used the litter box significantly more | lying/sitting - touching versus CON litter (cats [2]; 20-22 hour period, P=0.01): significantly higher | lying/sitting - touching versus CON litter (cats [2]; 22-24 hr period, P=0.04): tended to sit or lie in contact less | duration of aggression control (cats [2]; RP in the litter around 0.0004% to 0.0006% (w/w)): 6 to 8 h | Behavior score: Head in food/H2O dish (cats [2]; RP litter (3% (w/w) beads with 0.02% (w/w) 2-methylbut-2-enal), 24 hours, 4 cat pairs, CON 0.85, TRT P-Value 0.16): 0.57 | Behavior score: Grooming other (cats [2]; RP litter, 24 hours, 4 cat pairs, CON 0.03, TRT P-Value 0.36): 0.00 | Behavior score: Neutral social interaction (cats [2]; RP litter, 24 hours, 4 cat pairs, CON 0.10, TRT P-Value 0.82): 0.14 | Behavior score: In litter box - using (cats [2]; RP litter, 24 hours, 4 cat pairs, CON 0.31, TRT P-Value 0.23): 0.20 | Behavior score: Grooming self (cats [2]; RP litter, 24 hours, 4 cat pairs, CON 0.56, TRT P-Value 0.90): 0.52 | Behavior score: Lying/sitting - touching (cats [2]; RP litter, 24 hours, 4 cat pairs, CON 0.73, TRT P-Value 0.92): 0.64 | Behavior score: Play (cats [2]; RP litter, 24 hours, 4 cat pairs, CON 0.84, TRT P-Value 0.89): 0.92 | Behavior score: Sleeping (cats [2]; RP litter, 24 hours, 4 cat pairs, CON 0.95, TRT P-Value 0.59): 0.63 | Behavior score: In litter box - not using (cats [2]; RP litter, 24 hours, 4 cat pairs, CON 1.63, TRT P-Value 0.74): 2.34 | Behavior score: Aggression (cats [2]; RP litter, 24 hours, 4 cat pairs, CON 3.55, TRT P-Value 0.37): 2.01 | Behavior score: Locomotion (cats [2]; RP litter, 24 hours, 4 cat pairs, CON 5.50, TRT P-Value 0.52): 4.34 | Behavior score: Lying/sitting - not touching (cats [2]; RP litter, 24 hours, 4 cat pairs, CON 14.98, TRT P-Value 0.79): 15.53 | Behavior score: Anxiety (%) (cats [2]; RP litter, 24 hours, 4 cat pairs, CON 17.00, TRT P-Value 0.56): 25.00% | weight added to litter box (cats [2]; RP litter, CON cats 0.15 kg, SE=0.02 kg, change not significant, litter spilled): 0.07 kg/day | overall RP treatment effect on behaviors over the full 24 hours (cats [2]; RP versus CON litter, all behaviors of Table 10): None of the behaviors evaluated over the full 24 hours were significantly changed | anxiety versus CON litter (cats [2]; first 2 hour period, P=0.04): significantly less anxious | aggression patterns versus CON litter (cats [2]; first 6 hours after cats were placed together, P<0.01): significantly lower

— patent US10806121B2, “Animal litter containing a pheromone composition” (Sergeant's Pet Care Products, LLC, priority 2014, dated 2020)
